For 11 molecules, TGI and GI50 results are on record in PubChem BioAssay (NCI).

Test systems include 786-0 renal; K-562 leukemia; MALME-3M melanoma; OVCAR-4 ovarian; SN12C renal; UACC-257 melanoma; UACC-62 melanoma; NCI/ADR-RES ovarian; RPMI-8226 leukemia.
What all share (assay): DTP human tumour cell line panel, 48 h

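Test compounds were applied to cells in 96-well plates for 48 hours at 5 doses. Here, GI50 denotes the concentration required for 50% inhibition of growth. Definition used: TGI = concentration required for complete inhibition of growth.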

With `Cc1cc(=O)n(-c2ccccc2C)c(C)n1`, the TGI in the assay with 786-0 renal, in the assay with K-562 leukemia, in the assay on MALME-3M melanoma, in the assay on OVCAR-4 ovarian, in the assay with SN12C renal and with UACC-257 melanoma was above 100 µM throughout. Besides, the total growth inhibition concentration (TGI) with UACC-62 melanoma is above 100 µM.

As to `Cc1ccc(Nc2n[nH]c(=S)s2)cc1C`, the TGI in the assay with 786-0 renal, in the assay with K-562 leukemia, in the assay with MALME-3M melanoma, in the assay with NCI/ADR-RES ovarian, with OVCAR-4 ovarian and in the assay on RPMI-8226 leukemia was above 100 µM in each case. For the same molecule, the TGI in the assay with SN12C renal, with UACC-257 melanoma and in the assay on UACC-62 melanoma was above 100 µM each time.

As for `COc1cc([N+](=O)[O-])c(OC)cc1-c1nc2sc(Cl)cn2c1/C(N)=N/C(=N)N`, the GI50 is 2.33 µM in the assay on 786-0 renal; 2.01 µM with K-562 leukemia; 5.71 µM with MALME-3M melanoma; 61.4 µM in the assay on NCI/ADR-RES ovarian; 5.67 µM in the assay with OVCAR-4 ovarian; 5.73 µM with RPMI-8226 leukemia. Further, the results for the GI50 in the assay on SN12C renal, in the assay on UACC-257 melanoma and with UACC-62 melanoma were 1.91 µM, 8 µM and 15 µM, respectively. Moreover, the TGI was 5.64 µM in the assay with 786-0 renal; above 100 µM in the assay with K-562 leukemia; 26.6 µM in the assay with MALME-3M melanoma; above 100 µM in the assay with NCI/ADR-RES ovarian; 33.8 µM with OVCAR-4 ovarian; 20.5 µM with RPMI-8226 leukemia. Moreover, the TGI stood at 4.29 µM in the assay on SN12C renal, 22.6 µM in the assay with UACC-257 melanoma and 35.3 µM in the assay with UACC-62 melanoma.

As for `Cc1ccc2nc(NC(=O)C(=O)C(C#N)c3nc4ccccc4s3)sc2c1` (configuration not stated), the TGI with 786-0 renal was above 100 µM; with K-562 leukemia, 76.6 µM; with MALME-3M melanoma it was above 100 µM; with OVCAR-4 ovarian, above 100 µM; in the assay with RPMI-8226 leukemia, 64.8 µM; in the assay with SN12C renal, above 100 µM. The TGI is 87.6 µM with UACC-257 melanoma and above 100 µM in the assay with UACC-62 melanoma.

In the case of `C=C(C)C(=O)O[C@H]1CC(=C)[C@@H]2C[C@H](O)[C@](O)(CCl)[C@@H]2[C@H]2OC(=O)C(=C)[C@@H]21`, the GI50 with 786-0 renal was 1.93 µM; in the assay on K-562 leukemia it was 1.8 µM; in the assay with MALME-3M melanoma, 1.86 µM; in the assay on NCI/ADR-RES ovarian, 3.33 µM; in the assay with OVCAR-4 ovarian, 2.08 µM; with RPMI-8226 leukemia it was 1.43 µM. Also, the GI50 in the assay on SN12C renal was 4.09 µM; with UACC-257 melanoma it was 3.65 µM; with UACC-62 melanoma, 3.26 µM. The TGI with 786-0 renal is 3.88 µM; in the assay on K-562 leukemia, 4.59 µM; in the assay on MALME-3M melanoma, 3.6 µM; with NCI/ADR-RES ovarian it was 13.2 µM; in the assay on OVCAR-4 ovarian, 4.01 µM; with RPMI-8226 leukemia, 4.78 µM. In addition, the concentration for total growth inhibition (TGI) worked out at 17.1 µM in the assay with SN12C renal, 13.5 µM in the assay with UACC-257 melanoma and 11.4 µM in the assay with UACC-62 melanoma.

For the molecule `O=C([CH-]C(=O)c1ccccc1)c1ccccc1.O=C([CH-]C(=O)c1ccccc1)c1ccccc1.[La+3].[OH-].[OH3+]`, the GI50 with 786-0 renal was 16 µM; in the assay on K-562 leukemia, 5.24 µM; in the assay on MALME-3M melanoma, 23 µM; in the assay with OVCAR-4 ovarian, 26.1 µM; with RPMI-8226 leukemia, 11.1 µM; in the assay with SN12C renal, 18.4 µM. The GI50 with UACC-257 melanoma was 16.3 µM; with UACC-62 melanoma, 14 µM. Moreover, the concentration for total growth inhibition (TGI) in the assay on 786-0 renal is 65.1 µM; with K-562 leukemia, above 100 µM; in the assay on MALME-3M melanoma, 69.5 µM; in the assay on OVCAR-4 ovarian, above 100 µM; in the assay on RPMI-8226 leukemia, 49.9 µM; in the assay on SN12C renal it was 68 µM. The values for the TGI in the assay with UACC-257 melanoma and with UACC-62 melanoma were 46.5 µM and 44.7 µM, respectively.

In the case of `CN(CCCn1c2c(c3ccccc3c1=O)C(=O)c1ccccc1-2)CCCn1c2c(c3ccccc3c1=O)C(=O)c1ccccc1-2`, the GI50 in the assay with 786-0 renal was 0.0214 µM; in the assay on K-562 leukemia, 0.335 µM; in the assay on MALME-3M melanoma, 1.08 µM; in the assay on NCI/ADR-RES ovarian, 1.05 µM; with OVCAR-4 ovarian it was 2.26 µM; in the assay on UACC-257 melanoma, 21.6 µM. The GI50 in the assay with UACC-62 melanoma was 3.08 µM. For the same molecule, the TGI in the assay on 786-0 renal is 1.39 µM; in the assay with MALME-3M melanoma, 28.4 µM; in the assay on NCI/ADR-RES ovarian it was 4.32 µM; with OVCAR-4 ovarian it was above 100 µM; in the assay with UACC-257 melanoma, above 73.2 µM; in the assay with UACC-62 melanoma, 45.3 µM.

In the case of `C(#Cc1ccccc1C#Cc1cccs1)c1cccs1`, the GI50 was 24.7 µM in the assay on 786-0 renal; 30.2 µM in the assay with K-562 leukemia; 56.9 µM in the assay on MALME-3M melanoma; 25.2 µM in the assay on NCI/ADR-RES ovarian; 83.8 µM in the assay on OVCAR-4 ovarian; above 100 µM in the assay with UACC-257 melanoma. The GI50 with UACC-62 melanoma is 43.4 µM. For the same molecule, the TGI in the assay with 786-0 renal, in the assay with K-562 leukemia, in the assay with MALME-3M melanoma, in the assay with NCI/ADR-RES ovarian, in the assay on OVCAR-4 ovarian and with UACC-257 melanoma was above 100 µM in each case. In addition, in the assay with UACC-62 melanoma, the TGI is above 100 µM.

In the case of `COc1ccc(C2=CC(c3ccc4c(c3)OCO4)c3c(c4ccccc4oc3=O)O2)cc1OC` (configuration not stated), the total growth inhibition concentration (TGI) is above 100 µM in the assay with 786-0 renal; above 100 µM in the assay on MALME-3M melanoma; above 100 µM in the assay on NCI/ADR-RES ovarian; above 100 µM in the assay with OVCAR-4 ovarian; above 65.3 µM with RPMI-8226 leukemia; above 100 µM in the assay with SN12C renal. Further, the total growth inhibition concentration (TGI) in the assay with UACC-257 melanoma and in the assay on UACC-62 melanoma was above 100 µM in each case.

On to `CC(C)[C@H](N)C(=O)N1CCC[C@H]1B(O)O`, for which the GI50 in the assay with 786-0 renal, in the assay with K-562 leukemia, in the assay on MALME-3M melanoma, in the assay with NCI/ADR-RES ovarian, in the assay with OVCAR-4 ovarian and in the assay on RPMI-8226 leukemia was above 100 µM in each case. The GI50 in the assay with SN12C renal, in the assay with UACC-257 melanoma and in the assay with UACC-62 melanoma was above 100 µM each time. Moreover, the TGI in the assay with 786-0 renal, in the assay on K-562 leukemia, in the assay on MALME-3M melanoma, in the assay with NCI/ADR-RES ovarian, in the assay with OVCAR-4 ovarian and in the assay on RPMI-8226 leukemia was above 100 µM in each case. Also, the TGI in the assay on SN12C renal, in the assay with UACC-257 melanoma and in the assay on UACC-62 melanoma was above 100 µM each time.

`COc1ccc2n[se]nc2c1`: the TGI with 786-0 renal, in the assay on K-562 leukemia, in the assay with MALME-3M melanoma, in the assay on OVCAR-4 ovarian, in the assay with RPMI-8226 leukemia and in the assay on SN12C renal was above 100 µM throughout. For the same molecule, the TGI in the assay with UACC-257 melanoma and with UACC-62 melanoma was above 100 µM in each case.

Usually TGI stands for the concentration at which net growth stops. By GI50 is commonly meant the concentration giving 50% growth inhibition.
